In patent US4727080A, “1-substituted derivatives of 6-fluoro-7-(pyrrol-1-yl)-1,4-dihydro-4-oxoquinoline-3-carboxylic acid, their preparation and their application as drugs” (Provesan S.A., priority 1984, dated 1988):
≈ marks a conversion by molar mass, not a printed value.

Assays:
[1] = system: Escherichia coli R-1513; assay: "In vitro" MIC, Escherichia coli R-1513; assay type: cell-based; details: R1513; Escherichia coli R-1513; dextrose agar, 37° C., 20 hours; read-out: "In vitro" MIC
Description: (§1) Antimicrobial pharmacological activity (G. L. Daquet and Y. A. Chabbect, Techniques en bacteriologie (Techniques in bacteriology), vol. 3, Flammarion Medecine-Sciences, Paris, 1972, and W. B. Hugo and A. D. Rusell, Pharmaceutical Microbiology, Blackwell Scientific Publications, London (1977).
(§2) A streak culture of each of the microorganisms is formed in tubes of antibiotics agar no. 1 and incubated for 20 hours at 37° C. A culture loop is then taken and a culture is formed in a tryptone-soya broth and incubated for 20 hours at 37° C. The resulting culture is diluted to 1/4 with Ringer's physiological solution to give a standardized suspension of 10^5 ufc/ml for each organism.
(§3) Starting from a solution of 1000 μg/ml in 0.1N NaOH, each product is diluted successively in dextrose agar (melted beforehand and kept at 50° C.) to give the following concentrations: 64-32-16-8-4-2-1-0.5-0.25-0.125 μg of derivative/ml of medium.
(§4) After this, each concentration of each product is divided up into Petri dishes of 10 cm diameter at a rate of 10 ml of medium per dish and using as many dishes as there are microorganisms to be tested.
(§5) Once the medium has cooled, the dishes are treated with the inoculations at a rate of 0.4 ml of inoculation per dish. They are spread out with a Drigalski loop and the supernatant is collected. The inoculated dishes are incubated at 37° C. for 20 hours.

[2] = system: Serratia marcescens ATTC 13880; assay: "In vitro" MIC, Serratia marcescens; assay type: cell-based; details: ATTC13880; Serratia marcescens ATTC 13880; dextrose agar, 37° C., 20 hours; read-out: "In vitro" MIC
Description: as §1
Serratia marcescens ATTC 13880
as §2, §3, §4, §5

[3] = system: Bacillus subtilis ATCC 6633; assay: "In vitro" MIC, Bacillus subtilis; assay type: cell-based; details: ATCC6633; Bacillus subtilis ATCC 6633; dextrose agar, 37° C., 20 hours; read-out: "In vitro" MIC
Description: as §1
Bacillus subtilis ATCC 6633
as §2, §3, §4, §5

[4] = system: Streptococcus faecalis ATCC 10541; assay: "In vitro" MIC, Streptococcus faecalis; assay type: cell-based; details: Enterococcus faecalis, ATCC10541; Streptococcus faecalis ATCC 10541; dextrose agar, 37° C., 20 hours; read-out: "In vitro" MIC
Description: as §1
Streptococcus faecalis ATCC 10541
as §2, §3, §4, §5

[5] = Acute toxicity to mice; details: mouse, in vivo, ip, suspension in 5% gum arabic, mortality over 7 days
Description: The experimental animals used to determine this toxicity were albino mice of the C.F.L.P. strain and of both sexes, weighing between 19 and 25 grams. After an 18-hour fasting period with water "ad libitum", the derivatives forming the subject of the present invention are administered intraperitoneally as a suspension in 5% gum arabic. The volume of suspension administered was 0.4 ml/20 grams (20 ml/kg) in all cases, the concentration of the suspension being changed according to the dose administered.
One hour after administration of the derivatives, the animals are given a standard Panlab rat-mouse food. The mortality was observed over a period of 7 days. Differences in mortality between the sexes were not observed with any of the products.

[6] = system: Micrococcus flavus ATCC 10240; assay: "In vitro" MIC, Micrococcus flavus; assay type: cell-based; details: ATCC10240; Micrococcus flavus ATCC 10240; dextrose agar, 37° C., 20 hours; read-out: "In vitro" MIC
Description: as §1
Micrococcus flavus ATTC 10240
as §2, §3, §4, §5

[7] = system: Klebsiella pneumoniae ATCC 10031; assay: "In vitro" MIC, Klebsiella pneumoniae; assay type: cell-based; details: ATCC10031; Klebsiella pneumoniae ATCC 10031; dextrose agar, 37° C., 20 hours; read-out: "In vitro" MIC
Description: as §1
Klebsiella pneumoniae ATCC 10031
as §2, §3, §4, §5

[8] = system: Gram-positive cocci; assay: "In vitro" antimicrobial activity compared with nalidixic acid, Gram-positive cocci; assay type: cell-based
Description: as §1, §2, §3, §4, §5

[9] = system: Pseudomonas aeruginosa 25115; assay: "In vitro" MIC, Pseudomonas aeruginosa 25115; assay type: cell-based; details: Pseudomonas aeruginosa 25115; dextrose agar, 37° C., 20 hours; read-out: "In vitro" MIC
Description: as §1
Pseudomonas aeruginosa 25115
as §2, §3, §4, §5

[10] = system: Enterobacteriaceae (Pseudomonas aeruginosa); assay: "In vitro" antimicrobial activity compared with nalidixic acid, Enterobacteriaceae (Pseudomonas aeruginosa); assay type: cell-based
Description: as §1, §2, §3, §4, §5

[11] = system: Escherichia coli ATCC 10536; assay: "In vitro" MIC, Escherichia coli ATCC 10536; assay type: cell-based; details: ATCC10536; Escherichia coli ATCC 10536; dextrose agar, 37° C., 20 hours; read-out: "In vitro" MIC
Description: as §1
Escherichia coli ATCC 10536
as §2, §3, §4, §5

[12] = system: Pseudomonas aeruginosa ADSA 47; assay: "In vitro" MIC, Pseudomonas aeruginosa ADSA 47; assay type: cell-based; details: ADSA47; Pseudomonas aeruginosa ADSA 47; dextrose agar, 37° C., 20 hours; read-out: "In vitro" MIC
Description: as §1
Pseudomonas aeruginosa ADSA 47
as §2, §3, §4, §5

[13] = system: Enterobacter aerogenes ATCC 15038; assay: "In vitro" MIC, Enterobacter aerogenes; assay type: cell-based; details: Klebsiella aerogenes, ATCC15038; Enterobacter aerogenes ATCC 15038; dextrose agar, 37° C., 20 hours; read-out: "In vitro" MIC
Description: as §1
Enterobacter aerogenes ATCC 15038
as §2, §3, §4, §5

[14] = system: Salmonella typhimurium AMES 100; assay: "In vitro" MIC, Salmonella typhimurium AMES 100; assay type: cell-based; details: Salmonella enterica; Salmonella typhimurium AMES 100; dextrose agar, 37° C., 20 hours; read-out: "In vitro" MIC
Description: as §1
Salmonella typhimurium AMES 100
as §2, §3, §4, §5

[15] = system: Enterobacter cloacae CHSP-20; assay: "In vitro" MIC, Enterobacter cloacae; assay type: cell-based; details: CHSP20; Enterobacter cloacae CHSP-20; dextrose agar, 37° C., 20 hours; read-out: "In vitro" MIC
Description: as §1
Enterobacter cloacae CHSP-20
as §2, §3, §4, §5

[16] = system: Proteus mirabilis ATCC 4675; assay: "In vitro" MIC, Proteus mirabilis; assay type: cell-based; details: ATCC4675; Proteus mirabilis ATCC 4675; dextrose agar, 37° C., 20 hours; read-out: "In vitro" MIC
Description: as §1
Proteus mirabilis ATCC 4675
as §2, §3, §4, §5

[17] = system: Salmonella typhimurium AMES 98; assay: "In vitro" MIC, Salmonella typhimurium AMES 98; assay type: cell-based; details: Salmonella enterica; Salmonella typhimurium AMES 98; dextrose agar, 37° C., 20 hours; read-out: "In vitro" MIC
Description: as §1
Salmonella typhimurium AMES 98
as §2, §3, §4, §5

[18] = system: Staphylococcus aureus ATCC 25178; assay: "In vitro" MIC, Staphylococcus aureus ATCC 25178; assay type: cell-based; details: ATCC25178; Staphylococcus aureus ATCC 25178; dextrose agar, 37° C., 20 hours; read-out: "In vitro" MIC
Description: as §1
Staphylococcus aureus ATCC 25178
as §2, §3, §4, §5

[19] = system: Staphylococcus aureus ATCC 5488/23; assay: "In vitro" MIC, Staphylococcus aureus ATCC 5488/23; assay type: cell-based; details: ATCC5488; Staphylococcus aureus ATCC 5488/23; dextrose agar, 37° C., 20 hours; read-out: "In vitro" MIC
Description: as §1
Staphylococcus aureus ATCC 5488/23
as §2, §3, §4, §5

[20] = system: Sarcina lutea ATCC 9341; assay: "In vitro" MIC, Sarcina lutea; assay type: cell-based; details: Micrococcus luteus, ATCC9341; Sarcina lutea ATCC 9341; dextrose agar, 37° C., 20 hours; read-out: "In vitro" MIC
Description: as §1, §2, §3, §4, §5

[21] = system: Citrobacter freundii ATCC 11606; assay: "In vitro" MIC, Citrobacter freundii; assay type: cell-based; details: ATCC11606; Citrobacter freundii ATCC 11606; dextrose agar, 37° C., 20 hours; read-out: "In vitro" MIC
Description: as §1
Citrobacter freundii ATCC 11606
as §2, §3, §4, §5

[22] = system: Shigella flexnerii; assay: "In vitro" MIC, Shigella flexnerii; assay type: cell-based; details: 20 h, read-out: "In vitro" MIC
Description: as §1, §2, §3, §4, §5

[23] = system: Proteus morganii CHSP-16; assay: "In vitro" MIC, Proteus morganii; assay type: cell-based; details: Morganella morganii, CHSP16; Proteus morganii CHSP-16; dextrose agar, 37° C., 20 hours; read-out: "In vitro" MIC
Description: as §1, §2, §3, §4, §5

| SMILES | MIC [1] [mg/L] | MIC [2] [mg/L] | MIC [3] [mg/L] | MIC [4] [mg/L] | LD50 at 168 h [5] [mg/kg] | MIC [6] [mg/L] | MIC [7] [mg/L] | "in vitro" activity compared with nalidixic acid [8] | MIC [9] [mg/L] | "in vitro" activity compared with nalidixic acid [10] | MIC [11] [mg/L] | MIC [12] [mg/L] | MIC [13] [mg/L] | MIC [14] [mg/L] | MIC [15] [mg/L] | MIC [16] [mg/L] | MIC [17] [mg/L] | MIC [18] [mg/L] | MIC [19] [mg/L] | MIC [20] [mg/L] | other results |
| --- | --- | --- | --- | --- | --- | --- | --- | --- | --- | --- | --- | --- | --- | --- | --- | --- | --- | --- | --- | --- | --- |
| O=C(O)c1cn(CCO)c2cc(-n3cccc3)c(F)cc2c1=O [Example 2, 6-fluoro-7-(pyrrol-1-yl)-1-(2-hydroxyethyl)-4-oxo-1,4-dihydroquinoline-3-carboxylic acid] | 1 (≈ 3.16 µM) | 1 (≈ 3.16 µM) | ≤ 0.062 | 1 (≈ 3.16 µM) | > 1600 | 16 (≈ 50.6 µM) | 0.062 (≈ 0.196 µM) | greater "in vitro" activity than nalidixic acid | 16 (≈ 50.6 µM) | greater "in vitro" activity than nalidixic acid | 0.125 (≈ 0.395 µM) | ≥ 32 | 2 (≈ 6.32 µM) | 0.25 (≈ 0.79 µM) | 1 (≈ 3.16 µM) | 1 (≈ 3.16 µM) | 0.25 (≈ 0.79 µM) | 0.5 (≈ 1.58 µM) | 0.5 (≈ 1.58 µM) | 16 (≈ 50.6 µM) | MIC [21]: 1 mg/L (≈ 3.16 µM); MIC [22]: 1 mg/L (≈ 3.16 µM); MIC [23]: 1 mg/L (≈ 3.16 µM) |
| C=Cn1cc(C(=O)O)c(=O)c2cc(F)c(-n3cccc3)cc21 [Example 3, 6-fluoro-7-(pyrrol-1-yl)-1-vinyl-4-oxo-1,4-dihydroquinoline-3-carboxylic acid] | 1 (≈ 3.35 µM) | 1 (≈ 3.35 µM) | ≤ 0.062 | 16 (≈ 53.6 µM) | > 1600 | 4 (≈ 13.4 µM) | 0.5 (≈ 1.68 µM) | greater "in vitro" activity than nalidixic acid | 4 (≈ 13.4 µM) | greater "in vitro" activity than nalidixic acid | 0.125 (≈ 0.419 µM) | 8 (≈ 26.8 µM) | 1 (≈ 3.35 µM) | 0.5 (≈ 1.68 µM) | 1 (≈ 3.35 µM) | 2 (≈ 6.71 µM) | ≤ 0.062 | 0.5 (≈ 1.68 µM) | 0.5 (≈ 1.68 µM) | 8 (≈ 26.8 µM) | MIC [21]: 1 mg/L (≈ 3.35 µM); MIC [22]: 1 mg/L (≈ 3.35 µM); MIC [23]: 2 mg/L (≈ 6.71 µM) |
